Measured values: US8003796B2, “Pyridone GPR119 G protein-coupled receptor agonists” (Bristol-Myers Squibb Company, priority 2007, dated 2011)
Structures can show the parent of a compound that is named as a salt.

Columns and labels:
[1] = tested on: male C57BL/6J mice; experiment: Mouse oral glucose tolerance test; assay type: in vivo; settings: oGTT in fasted mice; oral administration at -30 min, glucose 2 g/kg at time 0; plasma glucose AUC vs vehicle; dose not given
Protocol: Mouse Oral Glucose Tolerance Test
24 male C57BL/6J mice (8-10 weeks old, average weight 28 g) were randomized into 4 groups (1 mouse/cage) of 6 mice per group based on fed plasma glucose and body weight. Prior to initiating the study, mice were fasted overnight and the next morning they were weighed and placed in the experimental lab. After 30 min in the environment, the mice were bled via tail tip at −30 min and immediately given their first oral administration of vehicle (0.5% Methocel, 0.1% Tween 80 in water) or compound solutions (5 ml/kg). At time 0 the mice were bled and given 50% glucose (2 g/kg) to initiate the oral glucose tolerance test (oGTT). The mice were bled 30, 60 and 120 min after the glucose load. Blood samples were drawn into potassium EDTA, placed on ice during the study and subsequently centrifuged for 10 min at 3000 rpm at 4° C. Plasma samples were diluted 11-fold for glucose analysis in the Cobas Mira System (Roche Diagnostics). Area under the curve was calculated from the plasma glucose time course data using the trapezoid rule with fasting plasma glucose as the baseline (GraphPad Prism Software). The statistical significance of the changes in the glucose AUCs resulting from the different treatments was determined by one-way ANOVA followed by Dunnett's test using the vehicle group as the control (JMP software, release 5.1.2).

[2] = biological target: T1, human GPR119 (Homo sapiens, UniProt Q8TDV5); experiment: Human Tet-inducible cAMP assay; assay type: cell-based; settings: Flp-In-T-REx 293 tetracycline inducible cells expressing GPR119; cAMP by Hit Hunter cAMP kit; 1 hour at 37° C.; read-out: hGPR119 EC50
T1 construct: expressed in transfected cells; host or cells: Flp-In-T-REx 293 (tetracycline-inducible)
T1 sequence (Q8TDV5 1-335): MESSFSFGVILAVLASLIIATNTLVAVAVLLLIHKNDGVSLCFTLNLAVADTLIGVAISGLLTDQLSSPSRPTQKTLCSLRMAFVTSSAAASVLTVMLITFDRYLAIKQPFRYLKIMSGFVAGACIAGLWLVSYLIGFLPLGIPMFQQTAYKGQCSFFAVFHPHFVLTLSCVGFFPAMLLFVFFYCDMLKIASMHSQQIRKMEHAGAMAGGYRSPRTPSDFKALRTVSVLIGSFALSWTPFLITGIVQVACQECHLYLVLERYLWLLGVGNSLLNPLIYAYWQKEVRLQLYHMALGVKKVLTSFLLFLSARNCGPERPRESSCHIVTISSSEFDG
Protocol: The in vitro modulation of recombinant human GPR119 was determined as follows.
Human Tet-Inducible cAMP Assay
Cell lines expressing GPR119 are generated using the Flp-In-T-REx 293 tetracycline inducible gene expression system are cultured in culture medium comprising the following components: DMEM#11965, 10% FBS, 2 mM L-glutamine, 200 ug/ml Hygromycin B, and 15 ug/ml blasticidin.
For cAMP assays, cells are plated on 96 well plates (e.g., BD Falcon: REF 353948, black side, clear bottom, TC surface) at a density of about 4.5×10^4 cells per well in growth medium containing 1.0 ug/ml tetracycline (1.0 mg/ml stock). The cells are then incubated for 48 hours at 37° C.
Following the incubation, the growth medium is removed from the wells and the wells rinsed (once) with the assay buffer included in the Hit Hunter cAMP kit (100 μl/well). Following the wash, 20 μl of assay buffer is added to each well, followed by addition of 10 μl of a 3× concentration compound working solution. The solution is then mixed. The final concentration range of compound is from about 10^−5M to about 10^−11M. The reagents are then incubated at 37° C. at 5% CO2 for 1 hour.
The manufacturer's protocol may be followed for cAMP determination. The Hit Hunter cAMP kit protocol is outlined for the HIT-T15 cAMP assays described above.
Compounds of the present invention were tested in the Human Tet-inducible cAMP assay described immediately above and the results shown in Table 1 below were obtained.

Row | SMILES | Glucose Lowering (%) [1] [%] | EC50 [2] [nM]
1 | CC(C)OC(=O)N1CCC(Oc2ccn(-c3ccc(S(C)(=O)=O)cc3)c(=O)c2)CC1 [Example 3, isopropyl 4-(1-(4-(methylsulfonyl)phenyl)-2-oxo-1,2-dihydropyridin-4-yloxy)piperidine-1-carboxylate] | −29 | 
2 | CCCc1cnc(N2CCC(Oc3cc(=O)n(-c4ccc(S(C)(=O)=O)c(F)c4)cc3Cl)CC2)nc1 [Example 224, 5-chloro-1-(3-fluoro-4-(methylsulfonyl)phenyl)-4-(1-(5-propylpyrimidin-2-yl)piperidin-4-yloxy)pyridin-2(1H)-one, TFA salt] |  | 6
3 | CCCc1cnc(N2CCC(Oc3cc(=O)n(-c4ccc(C#N)c(F)c4)cc3Cl)CC2)nc1 [Example 227, 4-(5-chloro-2-oxo-4-(1-(5-propylpyrimidin-2-yl)piperidin-4-yloxy)pyridin-1(2H)-yl)-2-fluorobenzonitrile] |  | 1
4 | N#Cc1ccc(-n2cc(Cl)c(OC3CCN(c4ncc(C5CC5)cn4)CC3)cc2=O)cc1F [Example 229, 4-(5-chloro-4-(1-(5-cyclopropylpyrimidin-2-yl)piperidin-4-yloxy)-2-oxopyridin-1(2H)-yl)-2-fluorobenzonitrile] |  | 4
5 | CCCc1cnc(N2CCC(Oc3ccn(-c4ccc(NC(=O)C(C)(C)C)c(F)c4)c(=O)c3)CC2)nc1 [Example 239, N-(2-fluoro-4-(2-oxo-4-(1-(5-propylpyrimidin-2-yl)piperidin-4-yloxy)pyridin-1(2H)-yl)phenyl)pivalamide] |  | 9
6 | CS(=O)(=O)c1ccc(-n2ccc(OC3CCN(c4ncc(C5CCC5)cn4)CC3)cc2=O)c(F)c1 [Example 243, 4-(1-(5-cyclobutylpyrimidin-2-yl)piperidin-4-yloxy)-1-(2-fluoro-4-(methylsulfonyl)phenyl)pyridin-2(1H)-one] |  | 9
7 | CCCc1cnc(N2CCCC(Oc3ccn(-c4ccc(S(C)(=O)=O)cc4)c(=O)c3)CC2)nc1 (stereo not shown) [Example 261, 1-(4-(methylsulfonyl)phenyl)-4-(1-(5-propylpyrimidin-2-yl)azepan-4-yloxy)pyridin-2(1H)-one] |  | 257
8 | N#Cc1ccc(-n2cc(Cl)c(OC3CCN(c4ncc(CCC(F)(F)F)cn4)CC3)cc2=O)cc1F [Example 263, 4-(5-chloro-2-oxo-4-(1-(5-(3,3,3-trifluoropropyl)pyrimidin-2-yl)piperidin-4-yloxy)pyridin-1(2H)-yl)-2-fluorobenzonitrile] |  | 4
9 | N#Cc1ccc(-n2cc(Cl)c(OC3CCN(c4ncc(C5CC5)cn4)CC3)cc2=O)c(F)c1 [Example 265, 4-(5-chloro-4-(1-(5-cyclopropylpyrimidin-2-yl)piperidin-4-yloxy)-2-oxopyridin-1(2H)-yl)-3-fluorobenzonitrile] |  | 4
10 | CC(C)(C)OC(=O)N1CCC(Oc2cc(=O)n(-c3ccc(C#N)c(F)c3)cc2Cl)CC1 [Example 267, tert-butyl 4-(5-chloro-1-(4-cyano-3-fluorophenyl)-2-oxo-1,2-dihydropyridin-4-yloxy)piperidine-1-carboxylate] |  | 4
